Laboratory results reported in patent US20070197549A1, “Tetrazole compounds and their use as metabotropic glutamate receptor antagonists” (AstraZeneca AB, priority 2004, published 2007).

Target: T1, human mGluR5d (Homo sapiens, UniProt P41594)
T1 construct: expressed in transfected cells; GHEK cells stably expressing human mGluR5d are named only for the IP3 assay
Assay: FLIPR analysis of [Ca2+]i mobilization in cells expressing human mGluR5d
Type: cell-based
Procedure: For FLIPR analysis, cells expressing human mGluR5das described in WO97/05252 were seeded on collagen coated clear bottom 96-well plates with black sides and analysis of [Ca^2+]i mobilization was done 24 h after seeding.
FLIPR experiments were done using a laser setting of 0.800 W and a 0.4 second CCD camera shutter speed. Each FLIPR experiment was initiated with 160 μl of buffer present in each well of the cell plate. After each addition of the compound, the fluorescence signal was sampled 50 times at 1 second intervals followed by 3 samples at 5 second intervals. Responses were measured as the peak height of the response within the sample period. EC50 and IC50 determinations were made from data obtained from 8-point concentration response curves (CRC) performed in duplicate. Agonist CRC were generated by scaling all responses to the maximal response observed for the plate. […]
FLIPR experiments were done using a laser setting of 0.800 W and a 0.4 second CCD camera shutter speed with excitation and emission wavelengths of 488 nm and 562 nm, respectively. […] After each addition the fluorescence signal was sampled 50 times at 1 second intervals followed by 3 samples at 5 second intervals. Responses were measured as the peak height of the response within the sample period. […]

T1 sequence (P41594 21-942 isoform P41594-3 limits assumed): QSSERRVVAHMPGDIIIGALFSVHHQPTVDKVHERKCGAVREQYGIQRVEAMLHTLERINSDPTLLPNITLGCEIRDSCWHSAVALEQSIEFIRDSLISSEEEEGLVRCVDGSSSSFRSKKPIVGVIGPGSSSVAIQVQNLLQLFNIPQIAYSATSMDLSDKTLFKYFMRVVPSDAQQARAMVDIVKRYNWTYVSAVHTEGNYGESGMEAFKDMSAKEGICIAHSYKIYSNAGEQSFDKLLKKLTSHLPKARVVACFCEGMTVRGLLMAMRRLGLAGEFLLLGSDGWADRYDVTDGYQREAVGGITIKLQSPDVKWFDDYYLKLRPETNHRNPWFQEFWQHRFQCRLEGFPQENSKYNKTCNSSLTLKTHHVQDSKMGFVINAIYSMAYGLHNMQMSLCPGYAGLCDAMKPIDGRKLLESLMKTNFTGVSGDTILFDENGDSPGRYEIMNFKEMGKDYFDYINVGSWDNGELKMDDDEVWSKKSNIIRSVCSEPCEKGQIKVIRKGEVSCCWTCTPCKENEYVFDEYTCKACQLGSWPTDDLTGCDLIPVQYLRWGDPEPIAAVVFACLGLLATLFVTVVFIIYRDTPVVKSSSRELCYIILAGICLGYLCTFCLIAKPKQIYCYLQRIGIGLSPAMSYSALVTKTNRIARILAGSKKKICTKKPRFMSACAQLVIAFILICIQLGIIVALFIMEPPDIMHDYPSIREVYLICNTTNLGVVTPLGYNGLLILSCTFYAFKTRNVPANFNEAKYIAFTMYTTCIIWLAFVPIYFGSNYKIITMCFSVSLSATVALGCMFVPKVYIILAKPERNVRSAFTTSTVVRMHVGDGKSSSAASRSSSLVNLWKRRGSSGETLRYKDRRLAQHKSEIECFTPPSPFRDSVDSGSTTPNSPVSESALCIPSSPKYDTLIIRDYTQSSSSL

IC50 [nM]	Compound
55	CC(Sc1nnc(-c2ccncc2)n1C)c1nnn(-c2cc(Cl)ccc2F)n1 (centres unmarked) [4-(5-{1-[2-(5-Chloro-2-fluoro-phenyl)-2H-tetrazol-5-yl]-ethylsulfanyl}-4-methyl-4H-[1,2,4]triazol-3-yl)-pyridine]
132	CCOC(=O)N1CCN(C(C)c2nnn(-c3cccc(Cl)c3)n2)CC1 (centres unmarked) [Ethyl 4-{1-[2-(3-chlorophenyl)-2H-tetrazol-5-yl]ethyl}piperazine-1-carboxylate]
